This is an account of results in BindingDB's records for doi:10.1016/j.bmc.2018.09.008 (Ochanomizu University, 2018).

Bounds are passed on as bounds.

One may read the IC50 as the concentration that gives 50% inhibition.

This assay can be described thus: Antagonist activity at AR in mouse SC3 cells assessed as inhibition of DHT-induced cell proliferation after 3 days by CCK8 assay. For orientation: Formazan colour is commonly taken as a measure of viable cells.
As to `CN(C)c1ccc(C(=O)Nc2cccc(Oc3ccc(O)cc3)c2)cc1`, the 50% inhibitory concentration (IC50) came out at 7.4 µM.

As for `COc1ccccc1C(=O)Nc1ccc(C)c(Oc2ccc(O)cc2)c1`, the 50% inhibitory concentration (IC50) came out at 5.3 µM.

With `COc1cccc(C(=O)N(C)c2ccc(Oc3ccc(O)cc3)c(C)c2)c1`, the IC50 came out at 7.6 µM.

On to `COc1cccc(C(=O)Nc2ccc(Oc3ccc(O)cc3)c(Br)c2)c1`, for which the IC50 was determined as 5.7 µM.

Consider `COc1cccc(C(=O)Nc2ccc(Oc3ccc(O)cc3)cc2Cl)c1`, for which the half-inhibitory concentration (IC50) turned out to be 1.7 µM.

In the case of `COc1cccc(C(=O)Nc2cc(Cl)c(Oc3ccc(O)cc3)c(Cl)c2)c1`, the IC50 is 0.48 µM.

`COc1cccc(C(=O)Nc2ccc(Oc3cccc(O)c3)cc2)c1`: the IC50 is over 10 µM.

Turning to `CN(C)c1ccc(C(=O)Nc2ccc(Oc3cccc(O)c3)cc2)cc1`, the IC50 was 3.2 µM.

Consider `COc1ccccc1C(=O)Nc1cccc(Oc2ccc(O)cc2)c1`, for which the IC50 was over 10 µM.

Take `COc1ccc(C(=O)Nc2cccc(Oc3ccc(O)cc3)c2)cc1`: the IC50 is over 10 µM.

Consider `CN(C)c1ccccc1C(=O)Nc1cccc(Oc2ccc(O)cc2)c1`, for which the IC50 was determined as 6.3 µM.

With `COc1ccc(C(=O)Nc2cc(Oc3ccc(O)cc3)ccc2C)cc1`, the IC50 is over 10 µM.

As to `COc1ccc(C(=O)Nc2cccc(Oc3ccc(O)cc3)c2C)cc1`, the IC50 is over 10 µM.

Consider `COc1ccc(C(=O)Nc2ccc(C)c(Oc3ccc(O)cc3)c2)cc1`, for which the IC50 is over 10 µM.

With `COc1cccc(C(=O)Nc2cccc(Oc3cccc(O)c3)c2)c1`, the IC50 was over 10 µM.

`COc1ccc(C(=O)Nc2cccc(Oc3cccc(O)c3)c2)cc1`: the IC50 is over 10 µM.

As to `CN(C)c1cccc(C(=O)Nc2cccc(Oc3cccc(O)c3)c2)c1`, the IC50 is over 10 µM.

`COc1cccc(C(=O)Nc2ccc(Oc3ccc(O)cc3)c(F)c2)c1`: the IC50 is 0.4 µM.

With `COc1cccc(C(=O)Nc2ccc(Oc3ccc(O)cc3)c(Cl)c2)c1`, the concentration for half-maximal inhibition (IC50) is 0.48 µM.

For the compound `COc1cccc(C(=O)Nc2ccc(Oc3ccc(O)cc3)c(C(F)(F)F)c2)c1`, the IC50 came out at 4.3 µM.

For the compound `COc1cccc(C(=O)Nc2ccc(Oc3ccc(O)cc3)cc2C)c1`, the IC50 was found to be 3 µM.

For the compound `COc1cccc(C(=O)Nc2ccc(Oc3ccc(O)cc3)cc2F)c1`, the half-inhibitory concentration (IC50) was 0.65 µM.

For `COc1cccc(C(=O)Nc2ccc(Oc3ccc(O)cc3)cc2OC)c1`, the IC50 stood at 3.4 µM.

`COc1cccc(C(=O)Nc2cc(F)c(Oc3ccc(O)cc3)c(F)c2)c1`: the IC50 was determined as 0.51 µM.

With `COc1cccc(C(=O)Nc2ccc(Oc3ccc(O)cc3)c(F)c2F)c1`, the IC50 is 0.53 µM.
